# Measured values: the supplement of paper PMC10307832
# Columns and labels:
# Experiment in all cases: relative viability (nuclei count vs DMSO), 5 days (fraction); higher = more cells survive
# KN-93 = compound: CN(C/C=C/C1=CC=C(C=C1)Cl)CC2=CC=CC=C2N(CCO)S(=O)(=O)C3=CC=C(C=C3)OC [KN-93]
# Method in brief: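 Lung cancer cell lines in 1536-well plates were kept overnight at 37 °C, then pinned with five library-drug doses (not always all listed) spaced by √10 on vehicle-anchored plates. After 5 days without medium change, cells were fixed, permeabilised and Hoechst-stained in one step, imaged at 4×, and nuclei were counted with MetaXpress. Viability is treated-well nuclei divided by vehicle-well nuclei, taken as the median over plates. Plates passed only with control CV below 25% and at least one doubling.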
# KN-93 + Phenformin = compound: CN(C/C=C/C1=CC=C(C=C1)Cl)CC2=CC=CC=C2N(CCO)S(=O)(=O)C3=CC=C(C=C3)OC [KN-93] + N=C(N)NC(=N)NCCc1ccccc1 [Phenformin] (partner 250 µM)
# Method in brief: (§1)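 Five library-drug doses in √10 steps were combined with a fixed anchor-drug dose, or a single drug was given alone, by pin tool to lung cancer cell lines in 1536-well plates the day after seeding. Nuclei were stained and counted after 5 days. Relative viability is the nuclei count in treated wells over that in vehicle wells, taken as the median of duplicate plates.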
# KN-93 + Foretinib = compound: CN(C/C=C/C1=CC=C(C=C1)Cl)CC2=CC=CC=C2N(CCO)S(=O)(=O)C3=CC=C(C=C3)OC [KN-93] + COc1cc2c(Oc3ccc(NC(=O)C4(C(=O)Nc5ccc(F)cc5)CC4)cc3F)ccnc2cc1OCCCN1CCOCC1 [Foretinib] (partner 0.25 µM)
# Method in brief: as §1
# KN-93 + Dasatinib = compound: CN(C/C=C/C1=CC=C(C=C1)Cl)CC2=CC=CC=C2N(CCO)S(=O)(=O)C3=CC=C(C=C3)OC [KN-93] + Cc1nc(Nc2ncc(C(=O)Nc3c(C)cccc3Cl)s2)cc(N2CCN(CCO)CC2)n1 [Dasatinib] (partner 0.075 µM)
# Method in brief: as §1
# KN-93 + Luminespib = compound: CN(C/C=C/C1=CC=C(C=C1)Cl)CC2=CC=CC=C2N(CCO)S(=O)(=O)C3=CC=C(C=C3)OC [KN-93] + CCNC(=O)c1noc(-c2cc(C(C)C)c(O)cc2O)c1-c1ccc(CN2CCOCC2)cc1 [Luminespib] (partner 0.01 µM)
# Method in brief: as §1
# KN-93 + Tozasertib = compound: CN(C/C=C/C1=CC=C(C=C1)Cl)CC2=CC=CC=C2N(CCO)S(=O)(=O)C3=CC=C(C=C3)OC [KN-93] + Cc1cc(Nc2cc(N3CCN(C)CC3)nc(Sc3ccc(NC(=O)C4CC4)cc3)n2)n[nH]1 [Tozasertib] (partner 0.1 µM)
# Method in brief: as §1
# KN-93 + OSI-027 = compound: CN(C/C=C/C1=CC=C(C=C1)Cl)CC2=CC=CC=C2N(CCO)S(=O)(=O)C3=CC=C(C=C3)OC [KN-93] + COc1cccc2cc(-c3nc([C@H]4CC[C@H](C(=O)O)CC4)n4ncnc(N)c34)[nH]c12 [OSI-027] (partner 0.5 µM)
# Method in brief: as §1
cell line,measurement,setting,value
NCI-H1623,relative viability,KN-93; 0.08 µM,0.95
same,relative viability,KN-93; 0.253 µM,0.984
same,relative viability,KN-93; 2.53 µM,0.956
same,relative viability,KN-93; 8 µM,0.958
same,relative viability,KN-93 + Phenformin; first compound 0.08 µM,0.61
same,relative viability,KN-93 + Phenformin; first compound 0.253 µM,0.592
same,relative viability,KN-93 + Phenformin; first compound 2.53 µM,0.672
same,relative viability,KN-93 + Phenformin; first compound 8 µM,0.453
same,relative viability,KN-93 + Foretinib; first compound 0.08 µM,0.861
same,relative viability,KN-93 + Foretinib; first compound 0.253 µM,0.796
same,relative viability,KN-93 + Foretinib; first compound 2.53 µM,0.994
same,relative viability,KN-93 + Foretinib; first compound 8 µM,0.726
same,relative viability,KN-93 + Dasatinib; first compound 0.08 µM,0.647
same,relative viability,KN-93 + Dasatinib; first compound 0.253 µM,0.525
same,relative viability,KN-93 + Dasatinib; first compound 2.53 µM,0.536
same,relative viability,KN-93 + Dasatinib; first compound 8 µM,0.393
same,relative viability,KN-93 + Luminespib; first compound 0.08 µM,0.44
same,relative viability,KN-93 + Luminespib; first compound 0.253 µM,0.414
same,relative viability,KN-93 + Luminespib; first compound 2.53 µM,0.654
same,relative viability,KN-93 + Luminespib; first compound 8 µM,0.457
same,relative viability,KN-93 + Tozasertib; first compound 0.08 µM,0.445
same,relative viability,KN-93 + Tozasertib; first compound 0.253 µM,0.41
same,relative viability,KN-93 + Tozasertib; first compound 2.53 µM,0.41
same,relative viability,KN-93 + Tozasertib; first compound 8 µM,0.439
same,relative viability,KN-93 + OSI-027; first compound 0.08 µM,0.418
same,relative viability,KN-93 + OSI-027; first compound 0.253 µM,0.36
same,relative viability,KN-93 + OSI-027; first compound 2.53 µM,0.393
same,relative viability,KN-93 + OSI-027; first compound 8 µM,0.416
